Measurements reported in US20030139470A1, “3,4-dihydroxybenzyl-substituted carbonic acid derivatives and the use thereof as antioxidants” (priority 2000, published 2003).

Assays:
[1] = DPPH test for the removal of free radicals (activity as free-radical scavengers); conditions: DPPH 100 μmol/l in methanol, absorption at 515 nm
Procedure: The activity of the exemplary compounds as free-radical scavengers was compared with that of conventional free-radical scavengers. For this purpose, the DPPH-(1,1-diphenyl-2-picrylhydrazyl) test for the removal of free radicals was used.
DPPH was dissolved in methanol to a concentration of 100 μmol/l. A series of dilutions of the exemplary compounds, vitamin C, α-tocopherol and 3,5-di-tert-butyl-4-hydroxytoluene were prepared in methanol. Methanol served as the control. 2500 μl of the DPPH solution were mixed with 500 μl of each test solution and the decrease in absorption at 515 nm was read until the decrease was less than 2% per hour. The activity of the test substances as free-radical scavengers was calculated according to the following equation:
Activity as free-radical scavenger (%)=100−(absorption of the test compounds)/(absorption of the control)×100.
The activity as free-radical scavenger (%) in a series of dilutions of test compounds was used to calculate, for each test compound, the effective relative concentration EC50 (based on the starting concentration of DPPH, EC=c(test compound)/c(DPPH)) of a test compound at which 50% of the free radical DPPH had been removed.

[2] = Accelerated autoxidation of lipids by air, Rancimat apparatus, soybean oil; conditions: antioxidative index = IP(with test solution)/IP(control sample), soybean oil purified over alumina grade N
Procedure: (§1) The activity of the exemplary compounds as antioxidants was compared with that of conventional antioxidants. The test system used was the accelerated autoxidation of lipids by air with or without antioxidant using the Rancimat apparatus (Rancimat is a registered trademark of Metrohm AG, Herisau, Switzerland).
(§2) The exemplary compounds, vitamin C, α-tocopherol and 3,5-di-tert-butyl-4-hydroxytoluene were dissolved in methanol or acetone, and 100 μl of each test solution was added to a 3 g prepared oil sample. In a control sample, only solvent was added. A constant stream of dry air (20 l/h) was bubbled through the heated oil sample which contained the test solution, and the volatile oxidation products (predominantly short-chain fatty acids such as formic acid or acetic acid) were collected in a receiver containing water. The conductivity of this aqueous solution was continuously measured and documented. The oxidation of (unsaturated) fats proceeds only very slowly for some time and then suddenly increases. The time to the increase is referred to as the induction period (IP).
(§3) The following equation was used to calculate the antioxidative index (AOI):
(§4) AOI=IP(with test solution)/IP(control sample).

[3] = Accelerated autoxidation of lipids by air, Rancimat apparatus, squalene; conditions: antioxidative index = IP(with test solution)/IP(control sample), squalene purified over alumina grade N, stabilized with 1 ppm α-tocopherol
Procedure: as §1, §2, §3, §4
The results for the experiment at 80° C. in squalene that has been purified over alumina grade N and stabilized with 1 ppm of α-tocopherol are given in Table 4: […]

Compound | EC50 (effective relative concentration, c(test compound)/c(DPPH), at which 50% of the free radical DPPH had been removed) [1] | AOI in soybean oil at 100° C. with 0.05% test substance [2] | AOI in squalene at 80° C. with 0.005% test substance [3]
Cc1c(C)c2c(c(C)c1O)CC[C@@](C)(CCC[C@H](C)CCC[C@H](C)CCCC(C)C)O2 [α-Tocopherol, reference compound] | 0.25 mol/mol | 5.1 | 39
O=C1O[C@H]([C@@H](O)CO)C(O)=C1O [Vitamin C, reference compound] | 0.27 mol/mol | 1.2 | 0.7
Cc1cc(C(C)(C)C)c(O)c(C(C)(C)C)c1 [3,5-Di-tert-butyl-4-hydroxytoluene, reference compound] | 0.24 mol/mol | 4.8 | 38
CC(C)[C@@H]1CC[C@@H](C)C[C@H]1OC(=O)NCc1ccc(O)c(O)c1 [Example 2, N-(3,4-Dihydroxybenzyl)-O-[(1R,3R,4S)menthyl]urethane] | 0.36 mol/mol | 6.5 | 48
COC(=O)NCc1ccc(O)c(O)c1 [Example 1, N-(3,4-Dihydroxybenzyl)-O-methylurethane] | 0.29 mol/mol | 7.2 | 34

Further lines, with some results ahead:

EC50 (effective relative concentration, c(test compound)/c(DPPH), at which 50% of the free radical DPPH had been removed) [1] | Compound | AOI in soybean oil at 100° C. with 0.05% test substance [2] | AOI in squalene at 80° C. with 0.005% test substance [3]
0.06 mol/mol | CCCCCCNC(=S)NCc1ccc(O)c(O)c1 [Example 5, N-(3,4-Dihydroxybenzyl)-N′-hexylthiourea] | – | 62
0.19 mol/mol | CCCCCCOC(=O)NCc1ccc(O)c(O)c1 [Example 3, N-(3,4-Dihydroxybenzyl)-O-hexylurethane] | 14.5 | 49
0.13 mol/mol | CCCCC(CC)COC(=O)NCc1ccc(O)c(O)c1 (centres unmarked) [Example 4, N-(3,4-Dihydroxybenzyl)-O-(2-ethylhexyl)urethane] | 10.7 | 45
